Results on one compound are retold here after patent US20240382544A1, “COMPOSITION FOR ANTI-OBESITY AND PREVENTING OR TREATING MUSCLE LOSS, CONTAINING CATECHIN GLYCOSIDE EXTRACT DERIVED FROM PLANT IN GENUS ULMUS AS ACTIVE INGREDIENT” (DR. OREGONIN INC., priority 2022, published 2024).

“Also recorded” adds a separate entry of the source. Where only a bound is given, the exact number is not on record here.

In this assay the test system is 3T3-L1 cells. Description: Adipocyte differentiation (fat accumulation), Oil Red O staining. Format: cell-based, mouse. How it is done:
3T3-L1 cells, which are mouse-derived preadipocytes, were purchased from Korean Cell Line Bank. The 3T3-L1 cells were cultured using an DMEM medium (Welgene) supplemented with 10% bovine calf serum (BCF), 100 units/mL penicillin and 100 μg/mL streptomycin (complete DMEM medium) in a humidified CO2 incubator (5% CO2/95% air) at 37° C. When the cells filled about 80% of the culture dish, the cell monolayer was washed with phosphate-buffered saline (PBS, pH 7.4) and the cells were detached by adding trypsin-2.65 mM EDTA. Then, the cells were subcultured while replacing the medium every other day.
3T3-L1 cells were seeded onto a 24-well plate at 1×10^5 cells/well. When the cells reached confluence, differentiation into adipocytes was induced by culturing the cells while replacing the medium sequentially with three differentiation media (DM). That is to say, differentiation was induced for 2 days by replacing the medium with a differentiation medium wherein DMI (1 μM dexamethasone, 0.5 mM 3-isobutyl-1-methylxanthine (IBMX) and 5 μg/mL insulin) was added to a DMEM medium containing 10% FBS. Then, differentiation was induced again for 2 days by replacing the medium with a fresh differentiation medium wherein 5 μg/mL insulin was added to a DMEM medium containing 10% FBS. Then, differentiation into adipocytes was induced by maintaining the cells for 2 days in a DMEM medium containing 10% FBS. […]

Regarding `OCC1(O)CO[C@@H](Oc2cc(O)c3c(c2)OC(c2ccc(O)c(O)c2)[C@@H](O)C3)C1O` (stereo partly drawn) [catechin 7-O-β-D-apiofuranoside], the “adipocyte differentiation-inhibiting ability (in words)” value (3T3-L1, concentration dependence) was “statistically significant adipocyte differentiation-inhibiting ability in a concentration-dependent manner; also recorded: inhibits the differentiation of adipocytes in a concentration-dependent manner with statistical significance”. Where the note is “Mus musculus, 20 μg/mL (highest concentration tested), 3T3-L1, Oil Red O, read-out: adipocyte differentiation-inhibiting ability”, the inhibition at 20 µg/mL was ≥ 40%.
